Experimental data reported in patent US8841290B2, “Substituted tetrahydronaphthalenes, method for the production thereof, and use thereof as drugs” (Sanofi, priority 2009, dated 2014).
Values after ≈ are worked out from the molar mass of the structure shown.

Legend:
[1] = nephelometric (kinetic) solubility determination, phosphate buffer pH 7.4; format: physicochemical; conditions: for solubility kinetic: aqueous buffer, kinetic from dmso stock, nephelometric, Table 7; for pH 7.4 (solubility): nephelometry, Table 8, reference compounds versus inventive examples
Experimental: A DMSO solution of the test compound (2.5 mM; 0.5 μl) is pipetted into 200 μl of an aqueous test solution (e.g. phosphate-buffered saline, 10×, 1M, Sigma, adjusted to 10 mM, pH 7.4) in a 96-well microtiter plate, and the turbidity is measured at the resulting theoretical concentration for the test compound of 6.25 μM using a nephelometer (e.g. Nephelostar Galaxy, BMG Labtech). The concentration of the test compound in the aqueous test solution is then raised to a theoretical 12.5 μM by adding further DMSO solution (2.5 mM; 0.5 μl), and the turbidity measurement is repeated. Further additions of DMSO solutions (1 μl, 2.5 mM; 0.5 μl, 10 mM; then 9×1 μl, 10 mM resulting in theoretical concentrations of 25 μM, 50 μM, 100 μM, 150 μM, 200 μM, 250 μM, 300 μM, 350 μM, 400 μM, 450 μM and 500 μM) with turbidity measurement in between complete the measurement process.
Evaluation: The turbidity values from the nephelometer are plotted against the theoretical concentration of the test compound in the aqueous test solution. As soon as a significant turbidity is detected (e.g. 5 times above the control value of the aqueous test solution) at a theoretical concentration, the level of concentration below this is stated to be the solubility limit of the test compound in the test solution. Thus, the maximum possible measurement range emerges as values<6.25 μM, 6.25-500 μM and >500 μM.

human MCH receptor = target: T1, human MCH receptor (Homo sapiens, UniProt Q99705); assay: calcium mobilization assay (FLIPR), functional IC50 of MCH1R antagonists; format: cell-based; conditions: recombinant HEK293 cell line expressing the human MCH receptor; calcium flux after addition of agonist (MCH); read-out: IC50
T1 construct: expressed in transfected cells
T1 sequence (Q99705 whole entry): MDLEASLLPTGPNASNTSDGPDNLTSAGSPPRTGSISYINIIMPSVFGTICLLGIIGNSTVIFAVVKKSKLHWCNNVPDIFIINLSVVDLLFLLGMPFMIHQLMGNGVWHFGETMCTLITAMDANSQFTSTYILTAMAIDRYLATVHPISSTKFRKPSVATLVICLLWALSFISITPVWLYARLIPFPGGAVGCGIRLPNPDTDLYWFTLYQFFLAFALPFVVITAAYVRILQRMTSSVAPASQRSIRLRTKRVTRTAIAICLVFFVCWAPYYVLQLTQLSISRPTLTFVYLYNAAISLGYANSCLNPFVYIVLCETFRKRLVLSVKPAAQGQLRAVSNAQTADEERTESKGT
Source text: A difference from the reference was, however, the use of the plasmid pEAK8 from EDGE Biosystems (USA) for the construction of the expression vector. The host used for the transfection was a transformed HEK cell line named “PEAK Stable Cells” (likewise from EDGE Biosystems). Functional measurements of the cellular calcium flux after addition of agonist (MCH) in the presence of ligand of the invention took place with the aid of the FLIPR apparatus from Molecular Devices (USA), using protocols of the apparatus manufacturer.

| solubility kinetic [1] [µg/mL] | IC50 (human MCH receptor) [nM] | pH 7.4 (solubility) [1] [mg/ml] | SMILES |
| --- | --- | --- | --- |
| > 275 | 145 |  | CC(C)CCNCc1ccc2c(c1)CC[C@H](N(C)C(=O)c1ccc(OCC3CC3)cn1)C2 [Example 7-32] |
| > 266 | 1100 |  | CN(C(=O)c1ccc(OCC2CC2)cc1)[C@H]1CCc2cc(CNC3CCC3)ccc2C1 [Example 7-10] |
| > 275 | 1200 | >0.275 | CC[C@H](O)COc1ccc(C(=O)N(C)[C@H]2CCc3cc(CN4CCCC4)ccc3C2)cc1 [Example 6-04] |
| > 275 | 133 |  | COCCCNCc1ccc2c(c1)CC[C@H](N(C)C(=O)c1ccc(OCC3CC3)cc1)C2 [Example 7-21] |
| 13 (≈ 31 µM) | 646 |  | CN1CCCC1c1ccc2c(c1)CC[C@H](N(C)C(=O)c1ccc(OCC3CC3)cn1)C2 (some centres unmarked) [Example 5-10] |
| > 282 | 133 |  | CCOCCCNCc1ccc2c(c1)CC[C@H](N(C)C(=O)c1ccc(OCC3CC3)cc1)C2 [Example 7-20] |
| > 280 | 370 |  | CCN1CCCCC1c1ccc2c(c1)CC[C@H](N(C)C(=O)c1ccc(OCC3CC3)cc1)C2 (some centres unmarked) [Example 5-07] |
| > 282 | 563 |  | CCC(COC)NCc1ccc2c(c1)CC[C@H](N(C)C(=O)c1ccc(OCC3CC3)cc1)C2 (some centres unmarked) [Example 7-19] |
| 203 (≈ 437 µM) | 146 |  | CCCCOc1ccc(C(=O)N(C)[C@H]2CCc3cc(CNCC4CCOCC4)ccc3C2)cc1 [Example 2-06] |
| > 41 | 703 |  | CN(C(=O)c1ccc(OCC2CC2)cn1)[C@H]1CCc2cc(C3CCCN3)ccc2C1 (stereo partly drawn) [Example 4-04, N-Methyl-N—((S)-6-pyrrolidin-2-yl-1,2,3,4-tetrahydronaphthalen-2-yl)-5-cyclopropylmethoxypyridine-2-carboxamide] |
| > 290 | 141 |  | CCCCOc1ccc(C(=O)N(C)[C@H]2CCc3cc(CNCC4CCOCC4)ccc3C2)nc1 [Example 2-07] |
| > 281 | 215 |  | CC1CCN(Cc2ccc3c(c2)CC[C@H](N(C)C(=O)c2ccc(OCC4CC4)cn2)C3)CC1 [Example 7-29] |
| 15 (≈ 30.6 µM) | 3690 |  | O=C(N[C@H]1CCc2cc(CNCC3CCOCC3)ccc2C1)c1ccc(NC(=O)C(F)(F)F)cc1 [Example 2-04] |
| > 259 | 261 |  | CN(C(=O)c1ccc(OCC2CC2)cc1)[C@H]1CCc2cc(CN3CCC3)ccc2C1 [Example 7-09] |
| 82 (≈ 190 µM) | 245 |  | CCCCOc1ccc(C(=O)N[C@H]2CCc3cc(CN4CC5CCC4C5)ccc3C2)cc1 (some centres unmarked) [Example 7-01] |
| > 288 | 148 |  | COCC1(CNCc2ccc3c(c2)CC[C@H](N(C)C(=O)c2ccc(OCC4CC4)cc2)C3)CC1 [Example 7-22] |
| 15 (≈ 31.5 µM) | 248 |  | CC1CCN(c2ccc(C(=O)N[C@H]3CCc4cc(CNCC5CCOCC5)ccc4C3)cc2)CC1 [Example 2-05] |
| > 275 | 108 |  | CCOCCNCc1ccc2c(c1)CC[C@H](N(C)C(=O)c1ccc(OCC3CC3)cc1)C2 [Example 7-23] |
| > 281 | 215 |  | CN(C(=O)c1ccc(OCC2CC2)cc1)[C@H]1CCc2cc(CNC[C@@H]3CCCO3)ccc2C1 [Example 1-02] |
| > 267 | 327 | >0.267 | CCCCOc1ccc(C(=O)N(C)[C@H]2CCc3cc(CN4CCCC4)ccc3C2)cc1 [Example 6-03] |
| > 289 | 180 |  | CN(C(=O)c1ccc(OCC2CC2)cn1)[C@H]1CCc2cc(CNCC3CCOCC3)ccc2C1 [Example 3, 5-Cyclopropylmethoxypyridine-2-carboxylic acid methyl-((S)-6-{[(tetrahydropyran-4-ylmethyl)amino]methyl}-1,2,3,4-tetrahydronaphthalen-2-yl)amide] |
| > 275 | 375 |  | CN(C(=O)c1ccc(OCC2CC2)cn1)[C@H]1CCc2cc(CNCC(C)(C)C)ccc2C1 [Example 7-34] |
| 168 (≈ 375 µM) | 756 |  | CN(C(=O)c1ccc(OCC2CC2)cn1)[C@H]1CCc2cc(CN3CCCCCC3)ccc2C1 [Example 7-27] |
| 15 (≈ 29.8 µM) | 858 |  | CN(C(=O)c1ccc(OCC2CC2)cc1)[C@H]1CCc2cc([C@H]3CCCN3CC3CCOCC3)ccc2C1 [Example 5-03] |
| > 279 | 831 |  | CN(C(=O)c1ccc(OCC2CC2)cc1)[C@H]1CCc2cc(CN3C[C@@H]4CC[C@H]3C4)ccc2C1 [Example 7-02] |
| > 275 | 384 |  | COC[C@H](C)NCc1ccc2c(c1)CC[C@H](N(C)C(=O)c1ccc(OCC3CC3)cc1)C2 [Example 7-24] |
| > 286 | 1370 |  | CN(C(=O)c1ccc(OCC2CC2)cc1)[C@H]1CCc2cc(CN3CC4CCC3CC4)ccc2C1 [Example 7-03] |
| > 281 | 130 |  | CN(C(=O)c1ccc(OCC2CC2)cc1)[C@H]1CCc2cc(CNC[C@H]3CCCO3)ccc2C1 [Example 1-03] |
| > 288 | 140 |  | CN(C(=O)c1ccc(OCC2CC2)cc1)[C@H]1CCc2cc(CNCCC3CCCO3)ccc2C1 (some centres unmarked) [Example 1-10] |
| 137 (≈ 315 µM) | 259 |  | CC(C)CCNCc1ccc2c(c1)CC[C@H](N(C)C(=O)c1ccc(OCC3CC3)cc1)C2 [Example 7-16] |
